Source: patent publication US20090203661A1, “Betulinic acid, derivatives and analogs thereof and uses therefor” (priority 2006, published 2009)
Where two headings read alike, the source gives them in different places.

How the values were obtained:
HT-29 cells = experiment: KLF4 mRNA (RT-PCR) in HT-29 cells; assay type: cell-based, human; settings: for KLF4 mRNA levels: HT-29; for effect of T007 on induction of KLF4 mRNA: HT-29, cotreatment with T007
Experimental: (§1) SW480 and HT29 colon cancer cells were treated either with vehicle (DMSO) or indicated compounds and after 24 hr total RNA was extracted using RNeasy Mini kit (Qiagen, Inc., Valencia, Calif.). RNA concentration was measured by UV 260:280 nm absorption ratio and 2 μg RNA was used to synthesize cDNA using Reverse Transcription System (Promega). PCR conditions were as follows: initial denaturation at 94° C. (1 min) followed by 28 cycles of denaturation for 30 s at 94° C., annealing for 60 s at 55° C. and extension at 72° C. for 60 s and a final extension step at 72° C. for 5 min. The mRNA levels were normalized using GAPDH as an internal housekeeping gene. Primers obtained from IDT and used for amplification are as follows: KLF4 (sense 5′-CTATGGCAGGGAGTCCGCTCC-3′ (SEQ ID NO: 1); antisense 5′-ATGACCGACGGGCTGCCGTAC-3′ (SEQ ID NO: 2)) and GAPDH (sense 5′-ACGGATTTGGTCGTATTGGGCG-3′ (SEQ ID NO: 3); antisense 5′-CTCCTGGAAGATGGTGATGG-3′ (SEQ ID NO: 4). PCR products were electrophoresed on 1% agarose gels containing ethidium bromide and visualized under UV transillumination.

PPARγ [1] = experiment: PPARγ transactivation (PPARγ-GAL4/pGAL4, PPRE3-luc) in SW480 cells; assay type: cell-based; settings: for transactivation, PPARγ-GAL4/pGAL4 and PPRE3-luc: SW480, 2.5-10 μM; for effect of PPARγ antagonist T007 on induced activities: SW480, cotreatment with T007
Experimental: (§2) Cells were seeded onto the 12-well plates and 0.4 μg of GAL4-Luc, 0.04 μg of β-GAL, 0.04 μg of GAL4DBD-PPARγ, and 0.4 μg of p21-luc(FL) containing −2325 to +8 insert, 0.4 μg of p21-luc (−124) containing −124 to +8 insert and 0.4 μg of p21-LUC (−60) containing −60 to +8 insert were transfected using LipofectAMINE reagent (Invitrogen) following the manufacturer's protocol. Cells were treated either with vehicle or respective compounds suspended in complete medium after 6 hr of transfection. Cell lysate is extracted after 20-22 hr by adding 100 μl of 1× reporter lysis buffer per well and 30 μl of this extract is used to quantitate the luciferase activity using Lumicount (Perkin-Elmer Life and Analytical Sciences). Each experiment is done in triplicate and the results are normalized to the β-GAL activity.

SW480 cells [2] = experiment: KLF4 mRNA (RT-PCR) in SW480 cells; assay type: cell-based, human
Experimental: as §1

PPARγ [3] = experiment: PPARγ transactivation (PPARγ-GAL4/pGAL4, PPRE3-luc) in Panc-28 cells; assay type: cell-based
Experimental: as §2

Panc-28 cells = experiment: Western blot of p21, p27, cyclin D1 in Panc-28 cells; assay type: cell-based, human; settings: for effect of T007 on induction of p21 protein: 5 μM compound plus 10 μM T007; for cyclin D1 expression / p27 expression: Panc-28; for p21 protein expression: Panc-28, 24 hr
Experimental: (§3) SW480, HT-29, HCT-15 and Panc-28 (3×10^5) colon cancer cells were seeded in 6-well tissue culture plates in DMEM/Ham's F-12 medium containing 2.5% charcoal-stripped FBS. Protein is extracted from the cells treated either with vehicle or indicated compounds suspended for 24 hr except for caveolin-1 protein which was done for 72 hr. Samples were extracted in high salt buffer [50 mmol/L HEPES, 500 mmol/L NaCl, 1.5 mmol/L MgCl2, 1 mmol/L EGTA, 10% glycerol, and 1% Triton X-100 (pH 7.5), and 5 μL/mL protease inhibitor cocktail (Sigma-Aldrich)]. Samples were incubated at 100° C. for 2 min, separated on either 10% or 12% SDS-PAGE gels and then transferred to polyvinylidene difluoride membrane (PVDF; Bio-Rad, Hercules, Calif.). The PVDF membrane was blocked in 5% TBST-Blotto (10 mM Tris HCl, 150 mM NaCl, pH 8.0, 0.05% Triton X-100, and 5% nonfat dry milk) for about 30 min and was then incubated in fresh 5% TBST-Blotto with 1:1000 for caveolin-1 (Santa Cruz Biotechnology, Santa Cruz, Calif.), 1:1000 for p21 (BD Pharmingen, Frank lakes, NJ) and 1:10000 for β-actin (Sigma) primary antibody overnight with gentle shaking at 4° C. After washing with TBST for 10 min, the membrane was incubated with respective secondary antibody (1:5000) (Santa cruz, Calif.) in 5% TBST-Blotto for 3 hr. The membrane is then washed with TBST for 10 min, incubated with chemiluminiscence reagent from Perkin Elmer for one min and then exposed to Kodak X-OMAT AR autoradiography film (Eastman Kodak, Rochester, N.Y.).

HCT-15 cells = experiment: Caveolin-1 expression (Western blot) in HCT-15 cells; assay type: cell-based, human; settings: HCT-15, cotreatment with T007
Experimental: as §3, with “The membrane is then washed with TBST for 10 min, incubated with chemiluminiscence reagent from Perkin Elmer for one min and then exposed to Kodak X-OMAT AR autoradiography film (Eastman Kodak, Rochester, N.Y.).” left out

SW480 cells [4] = experiment: Cell proliferation assay, SW480 cells; assay type: cell-based, human; settings: read-out: IC50 values, inhibition of growth
Experimental: SW480, HT-29 and HCT-15 human colon cancer cells were provided by Dr. Stan Hamilton (M. D. Anderson Cancer Center (Houston, Tex.). Panc-28 human pancreatic cancer cells and 3T3-L1 pre-adipocytes were obtained from American Type Culture Collection (Manassas, Va.). SW480, HT-29 and Panc-28 cells were maintained in Dulbecco's modified/Ham's F-12 (Sigma-Aldrich, St Louis, Mo.) with phenol red supplemented with 0.22% sodium bicarbonate, 0.011% sodium pyruvate, 5% fetal bovine serum, and 10 mL/L 100× antibiotic antimycotic solution (Sigma). HCT-15 cells were maintained in RPMI 1640 (Sigma) supplemented with 0.22% sodium bicarbonate, 0.011% sodium pyruvate, 0.45% glucose, 0.24% HEPES, 10% fetal bovine serum, and 10 mL/L of 100× antibiotic antimycotic solution (Sigma). Cells were maintained at 37° C. in the presence of 5% CO2.
This assay is performed in 12-well tissue culture plates at the concentration of 2×10^4 cells per well, using DMEM/Ham's F-12 media containing 2.5% charcoal stripped FBS. The cells were counted on the initial day using a Z1 cell counter (Beckman Coulter, Fullerton, Calif.) and then were treated either with vehicle (DMSO) or the indicated triterpenoid compounds, each sample in triplicate. Every 48 hr, fresh medium was added along with the indicated compounds. The count of the cells was taken after 2, 4 and 6 days. The results are expressed as means±S.E for each set of triplicate.

Row | SMILES | KLF4 mRNA levels (HT-29 cells) | effect of T007 on induction of KLF4 mRNA (HT-29 cells) | transactivation, PPARγ-GAL4/pGAL4 and PPRE3-luc (PPARγ [1]) | effect of PPARγ antagonist T007 on induced activities (PPARγ [1]) | KLF4 expression (SW480 cells [2]) | induction, PPARγ-GAL4/pGAL4 (PPARγ [3]; Panc-28) | induction, PPRE3-luc (PPARγ [3]; Panc-28, data not shown) | effect of T007 on induction of p21 protein (Panc-28 cells) | cyclin D1 expression (Panc-28 cells) | p27 expression (Panc-28 cells) | p21 protein expression (Panc-28 cells) | effect of T007 on induced caveolin-1 response (HCT-15 cells) | IC50 (SW480 cells [4]) [nM] | luciferase activity, PPARγ-GAL4/pGAL4 and PPRE3-luc (PPARγ [3]; Panc-28) | effect of T007 on induced luciferase activity (PPARγ [3]; Panc-28, cotreatment with T007) | IC50 (SW480 cells [4]; Homo sapiens) [nM]
1 | COC(=O)C12CCC(C(C)C)C1C1CCC3C4(C)C=C(C#N)C(=O)C(C)(C)C4CCC3(C)C1(C)CC2 (stereo not shown) [CN-BA-Me, Methyl 2-cyano-lup-1-en-3-oxo-20-oate] | induced KLF4 mRNA levels | did not inhibit | induced transactivation | inhibited by T007 | did not induce KLF4 expression | minimal induction | no induction | significantly inhibited | downregulation of cyclin D1 | induction of p27 | induce p21 protein expression | inhibition of the induced caveolin-1 response | 1000 to 2500 |  |  | 
2 | CC(C)C1CCC2(C(=O)O)CCC3(C)C(CCC4C5(C)C=C(C#N)C(=O)C(C)(C)C5CCC43C)C12 (stereo not shown) [CN-BA] | induced KLF4 mRNA levels | did not inhibit | induced transactivation | inhibited by T007 | did not induce KLF4 expression |  |  | significantly inhibited | downregulation of cyclin D1 | induction of p27 | induce p21 protein expression | inhibition of the induced caveolin-1 response | 1000 | induced luciferase activity | inhibited | 
3 | C=C(C)[C@@H]1CC[C@]2(C(=O)O)CC[C@]3(C)[C@H](CC[C@@H]4[C@@]5(C)CC[C@H](O)C(C)(C)[C@@H]5CC[C@]43C)[C@@H]12 [betulinic acid, Betulinic acid] |  | did not inhibit | inactive |  |  |  |  | not inhibited |  |  |  |  |  | inactive |  | 1000 to 5000
